Test results published in patent US20260274798A1, “PENTAMIDINE ANALOGUE POLYMORPHS, FORMULATIONS, AND METHODS THEREOF” (AURANSA INC., priority 2023, published 2026).
“Also recorded” adds a separate entry of the source.

What was measured:
Type in all cases: physicochemical
[1] = Thermodynamic solubility in water and a pH 7.4 phosphate buffer; details: slurry agitated at ambient ca. 24 hours, HPLC, diacetate
Protocol: (§1) 25.6 mL of 2-propanol was added to the lyophilized Compound A diacetate salt to form a slurry. The slurry was then temperature cycled between ambient and 40° C. in 4 hour cycles with agitation for ca. 24 hours. The slurry was then filtered and the isolated solids collected into a scintillation vial. A subsample was analyzed by XRPD and the vial was left uncapped to allow the solids to […] at ambient for ca. 24 hours. The material was then re-analyzed by XRPD post-drying and fully characterized using the following techniques: TG/DSC, DSC, DVS with post-DVS XRPD analysis, PLM, FT-IR, ^1H NMR, Purity by HPLC, TG/DSC with post TG/DSC XRPD analysis, and 7 Day Stability Assessment (ca. 10 mg of the material was stored at 40° C./75% RH. 80° C. and ambient light and humidity for 1 week. The solids were then analyzed by XRPD and purity obtained by HPLC). Thermodynamic solubility in water and a pH 7.4 phosphate buffer (The appropriate media was added in 100 μL aliquots to ca. 20 mg of the material to form a slurry. The samples were then sealed and agitated at ambient for ca. 24 hours before being centrifuge filtered. The isolated solids were analyzed by XRPD and the concentration of the mother liquors determined by HPLC).
The material appears highly insoluble in the phosphate buffer with all Forms having a solubility of 0.3 mg/mL except from Form 2 which has a solubility of 0.2 mg/mL.

[2] = Variable humidity X-ray powder diffraction (VH-XRPD); details: 30° C.
Protocol: XRPD analysis was carried out on a Philips X'Pert Pro Multipurpose diffractometer equipped with a humidity chamber. The samples were scanned between 4 and 36 °2θ using Cu K radiation (α1=1.54060 A; α2=1.54443 A; β=1.39225 A; α1:α2 ratio=0.5) running in Bragg-Brentano geometry (step size 0.008 °2θ) using 40 kV/40 mA generator settings. Measurements were performed at 30° C. during the humidity profile described below: • Initial scan at 40% RH • Humidity increased to 90% RH for 105 minutes (scan after 5 and 105 minutes) • Humidity decreased to 40% RH for 10 minutes (scan after 5 minutes) • Humidity decreased to 5% RH for 60 minutes (scan taken after 60 minutes) • Humidity decreased to 0% RH for 17 hours (scan taken after 17 hours) • Humidity increased to 40% RH for 60 minutes (scan taken at 30 and 60 minutes) • Humidity increased to 60% RH for 105 minutes (scan taken at 5 and 105 minutes) • Humidity increased to 80% RH for 60 minutes (scan taken at 5 and 55 minutes)

[3] = Dynamic vapour sorption (DVS) with post-DVS XRPD; details: 25° C.
Protocol: Approximately, 10-20 mg of sample was placed into a mesh vapour sorption balance pan and loaded into a DVS Intrinsic dynamic vapour sorption balance by Surface Measurement Systems. The sample was subjected to a ramping profile from 40-90% relative humidity (RH) at 10% increments, maintaining the sample at each step until a stable weight had been achieved (dm/dt 0.004%, minimum step length 30 minutes, maximum step length 500 minutes) at 25° C. After completion of the sorption cycle, the sample was dried using the same procedure to 0% RH and then a second sorption cycle back to 40% RH. Two cycles were performed. The weight change during the sorption/desorption cycles were plotted, allowing for the hygroscopic nature of the sample to be determined. XRPD analysis was then carried out on any solid retained.

[4] = 7 Day Stability Assessment (XRPD form and HPLC purity after storage); details: diacetate; for one-week stability: form by XRPD: 1 week (Form 1: 2 and 7 days)
Protocol: as §1

solubility ([1]; Water): 44.0 mg/mL
solubility ([1]; pH 7.4 Phosphate Buffer): 0.3 mg/mL
form by VH-XRPD ([2]; 90% RH): convert to Form 2
form by VH-XRPD ([2]; drying at 0% RH): becomes poorly crystalline
mass uptake at 90% RH ([3]; DVS, 90% RH, diacetate): 8%
hygroscopicity by DVS ([3]; DVS, diacetate): hygroscopic
weight loss on dehydration during DVS ([3]; below 10% RH): 7.3 wt. %
weight increase on form change during DVS ([3]; first sorption cycle at 80% RH): 5.2 wt. %
one-week stability: form by XRPD ([4]; 40° C./75% RH): remained unchanged by XRPD
one-week stability: form by XRPD ([4]; 80° C.): convert to Form 1
one-week stability: form by XRPD ([4]; ambient temperature and humidity): remained unchanged by XRPD
1 Week Stability ([4]; form by XRPD after storage at 40° C./75% RH, ambient or 80° C.): Converts to pattern 1 at 80 °C
Compound: CC(=O)O.CC(=O)O.N=C(N)c1ccc(OCCCCCOc2ccc(C(=N)N)nc2)cc1 [Form 9, 5-((5-(4-carbamimidoylphenoxy)pentyl)oxy)picolinimidamide diacetate]
form of recovered solid by post-DVS XRPD ([3]; after DVS cycles, diacetate): mixture of phases with peaks matching Form 9 and new peaks
form change during DVS ([3]; first sorption cycle at 80% RH, diacetate): form change to Form 2; also recorded: convert to Form 2
